One may read the IC50 as the concentration needed to halve the response being measured.

Data set [1] is described as follows: Relative solubility by turbidity in aqueous buffers. The class given is physicochemical. The note with it: for turbidity threshold (L, M, H) 4.5: pH 4.5 (Simulated Intestinal fluid); for turbidity threshold (L, M, H) 6.8: pH 6.8 (Simulated Intestinal fluid); for turbidity threshold (L, M, H) 7.4: pH 7.4 (Hepes Buffer). How it is done:
As an indication of relative solubility, the turbidity of compounds in aqueous solutions is assessed. To assess possible compound properties in different physiological compartments, such as stomach, intestine, and blood, a series of aqueous buffers with varying pH is used. Thus each compound is diluted into four different physiologically relevant buffers and solution turbidity is measured by spectrophotometry.
Compounds are dissolved at a concentration of 25 mM in dimethyl sulfoxide, then serially diluted 1:1 into a 96 well plate, diluting 10 times in pure dimethyl sulfoxide, with the final well of each row a dimethyl sulfoxide blank. In an assay plate, 99 μL of appropriate buffer is added to each well, and 1 μL of each sample dilution is added to the buffer, achieving a range of final total concentrations in aqueous solutions having different pH. The buffers used are Simulated Gastric Fluid (SGF-pH 1.5) 0.5M NaCl, pH 1.5; Simulated Intestinal fluid (SIF-pH 4.5 and pH 6.8) 0.05M NaH2PO4, pH 4.5 and 6.8; and Hepes Buffer (HEPES-pH 7.4) 10 mM HEPES, 150 mM NaCl, pH 7.4. Control compounds pyrene, estriol and propranolol HCl are also assessed. Plates are spun and then mixed for 1 minute, and the absorbance is read using a Tecan Safire II to read wavelengths in the visible range (490, 535, and 650 nm) at four locations per well, reflecting the degree of turbidity present. The average optical density for each wavelength in each well is graphed vs. compound concentration, and the concentration at which the curve crosses a threshold O.D. of 0.01 for each wavelength is reported as the endpoint turbidity assay result. The average of the three wavelengths is used to compare turbidity of compounds. Compounds are considered to have low solubility if the threshold concentration is <31.3 μM, moderate solubility if the threshold concentration is 31.3 μM to 250 μM, and high solubility if the threshold concentration is >250 μM.

In another data set the test system is Raf kinases. The data set is described as follows: Biochemical assay, Raf kinases as well as other kinases. How it is done: (§1) Assays for biochemical and cell based activity are known in the art, for example, as described in PCT publication WO 2007/002433, the disclosure of which is hereby incorporated by reference as it relates to such assays. For example, the biochemical activity IC50 values are determined with respect to inhibition of A-Raf kinase activity, B-Raf kinase activity, c-Raf-1 kinase activity, or B-Raf V600E kinase activity, where inhibition of phosphorylation of a peptide substrate is measured as a function of compound concentration. Compounds to be tested are diluted in dimethyl sulfoxide to a concentration of 0.1 mM. These are serially diluted 15 μL into 30 μL of dimethyl sulfoxide seven times in 96 well plates for a total of 8 dilution points, and for each dilution point 1 μL is added to a well of an assay plate. Plates are prepared such that each well in a 384 well plate contains 1 μL of compound in 10 μL volume with 0.1 ng Raf enzyme (i.e. any of A-Raf, B-Raf, c-Raf-1 or B-Raf V600E, Upstate Biotechnology or prepared by methods known to one of skill in the art), 50 mM HEPES, pH 7.0, 50 mM NaCl, 2 mM MgCl2, 1 mM MnCl2, 0.01% Tween-20, 1 mM DTT, and 100 nM biotin-MEK1 as substrate. The reaction is started with addition of 10 μL of 200 μM ATP (i.e. final 100 μM ATP). After incubation of the kinase reaction for 45 minutes at room temperature, 5 μL/well of Stop Solution is added (25 mM Hepes pH 7.5, 100 mM EDTA, 0.01% BSA with donor beads (Streptavidin coated beads, Perkin Elmer), acceptor beads (Protein A coated, Perkin Elmer), and anti phosphor MEK1/2 antibody (CellSignal), each at final concentration 10 μg/mL). The plates are incubated for 3 hours at room temperature and read on Envision reader (Perkin Elmer). Phosphorylation of Mek1 results in binding of the anti-phosphor-MEK1/2 antibody and association of the donor and acceptor beads such that signal correlates with kinase activity. The signal vs. compound concentration is used to determine the IC50.

The next data set has as its target Fms (Homo sapiens, UniProt P07333). The data set can be described thus: Biochemical inhibitory activity, other protein kinases: Fms. The note with it: listing of the kinase means IC50 >1 μM.
In another data set the target is Kdr (Homo sapiens, UniProt P35968). The data set can be described thus: Biochemical inhibitory activity, other protein kinases: Kdr. As to conditions: for Kinase having IC50 of >1 μM: listing of the kinase means IC50 >1 μM.
The next data set deals with T1, CYP2D6 (Homo sapiens, UniProt P10635).
T1 construct: purchased BD Biosciences
The data set can be described thus: CYP inhibition (fluorescent substrate), CYP2D6. The class given is in vitro ADME. As to conditions: substrate AMMC; read-out: Cyp IC50 (μM) 2D6. How it is done: CYP (Cytochrome P450) enzymes are the major drug metabolizing enzymes present in the liver. The inhibition of CYP enzyme activity (IC50) for each of CYP1A2, CYP2C19, CYP2C9, CYP2D6, CYP3A4(BFC) and CYP3A4(BQ) is determined for compounds, where inhibition of metabolism of a known substrate leads to a decrease in the fluorescence of the metabolized product. The fluorescence of the product is monitored as a function of compound concentration. Compounds are dissolved in dimethyl sulfoxide to a concentration of 100 mM. These are diluted 1 μL into 82 μL of acetonitrile. An 11 μL aliquot of this solution is then added to 204 μL of cofactor mix (1.3% NADPH Regeneration system Solution A, 1.04% NADPH Regeneration system Solution B from BD Biosciences, 5% acetonitrile and 0.05% dimethyl sulfoxide). These are then serially diluted 1:1 (160 μL to 160 μL co-factor mix) for a total of 10 points. A 10 μL aliquot of this final mixture is dispensed into 384 well assay plates and incubated for 10 minutes at 37° C. […] Assay plates are incubated at 37° C. (CYP1A2-15 min; CYP2C9-45 min; CYP2C19, 2D6 and 3A4-30 min) and read in a Tecan Safire 2 plate reader (CYP1A2, 2C19 and 3A4 409 ex/460 em; CYP2C9 and 2D6 409 ex/530 em). The signal versus compound concentration is used to determine the IC50. The enzymes and substrates for this assay are obtained from BD Biosciences.

A further data set has as its target T2, B-Raf (Homo sapiens, UniProt P15056).
T2 construct: purchased Upstate Biotechnology
The data set is described as follows: Raf biochemical kinase assay (biotin-MEK1 phosphorylation), B-Raf. As to conditions: 100 μM ATP. How it is done:
as §1

The target of another data set is Src (Homo sapiens, UniProt P12931). The data set is described as follows: Biochemical inhibitory activity, other protein kinases: Src. The note with it: for Kinase having IC50 of >1 μM: listing of the kinase means IC50 >1 μM; for Kinase having IC50 of <1 μM: listing of the kinase means IC50 <1 μM.
In another data set the target is T3, B-Raf V600E (Homo sapiens, UniProt P15056, V600E).
T3 construct: purchased Upstate Biotechnology
The data set is described as follows: Raf biochemical kinase assay (biotin-MEK1 phosphorylation), B-Raf V600E. The note with it: 100 μM ATP. The procedure:
as §1

SMILES strings stand for the structures.

T2 sequence (P15056 whole entry): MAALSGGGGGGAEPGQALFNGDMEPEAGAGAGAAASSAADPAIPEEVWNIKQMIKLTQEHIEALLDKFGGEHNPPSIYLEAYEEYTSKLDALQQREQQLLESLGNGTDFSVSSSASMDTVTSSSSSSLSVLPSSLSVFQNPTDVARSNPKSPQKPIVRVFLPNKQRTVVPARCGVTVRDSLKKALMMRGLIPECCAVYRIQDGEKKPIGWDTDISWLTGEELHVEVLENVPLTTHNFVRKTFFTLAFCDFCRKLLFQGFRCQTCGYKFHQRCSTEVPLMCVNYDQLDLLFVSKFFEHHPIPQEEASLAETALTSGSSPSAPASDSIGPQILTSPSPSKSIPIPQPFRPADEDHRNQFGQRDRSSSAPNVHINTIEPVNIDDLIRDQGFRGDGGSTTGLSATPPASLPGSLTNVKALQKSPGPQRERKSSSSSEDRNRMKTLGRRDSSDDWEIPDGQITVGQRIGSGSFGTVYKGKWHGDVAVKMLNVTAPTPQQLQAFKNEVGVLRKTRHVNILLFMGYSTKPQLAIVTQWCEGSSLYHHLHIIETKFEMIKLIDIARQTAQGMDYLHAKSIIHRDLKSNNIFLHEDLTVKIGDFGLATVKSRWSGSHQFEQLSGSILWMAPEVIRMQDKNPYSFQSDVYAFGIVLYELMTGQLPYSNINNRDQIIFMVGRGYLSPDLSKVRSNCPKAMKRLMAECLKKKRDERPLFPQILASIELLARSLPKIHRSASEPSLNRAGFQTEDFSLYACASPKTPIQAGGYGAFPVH
Fms, sequence (P07333 20-972, species assumed): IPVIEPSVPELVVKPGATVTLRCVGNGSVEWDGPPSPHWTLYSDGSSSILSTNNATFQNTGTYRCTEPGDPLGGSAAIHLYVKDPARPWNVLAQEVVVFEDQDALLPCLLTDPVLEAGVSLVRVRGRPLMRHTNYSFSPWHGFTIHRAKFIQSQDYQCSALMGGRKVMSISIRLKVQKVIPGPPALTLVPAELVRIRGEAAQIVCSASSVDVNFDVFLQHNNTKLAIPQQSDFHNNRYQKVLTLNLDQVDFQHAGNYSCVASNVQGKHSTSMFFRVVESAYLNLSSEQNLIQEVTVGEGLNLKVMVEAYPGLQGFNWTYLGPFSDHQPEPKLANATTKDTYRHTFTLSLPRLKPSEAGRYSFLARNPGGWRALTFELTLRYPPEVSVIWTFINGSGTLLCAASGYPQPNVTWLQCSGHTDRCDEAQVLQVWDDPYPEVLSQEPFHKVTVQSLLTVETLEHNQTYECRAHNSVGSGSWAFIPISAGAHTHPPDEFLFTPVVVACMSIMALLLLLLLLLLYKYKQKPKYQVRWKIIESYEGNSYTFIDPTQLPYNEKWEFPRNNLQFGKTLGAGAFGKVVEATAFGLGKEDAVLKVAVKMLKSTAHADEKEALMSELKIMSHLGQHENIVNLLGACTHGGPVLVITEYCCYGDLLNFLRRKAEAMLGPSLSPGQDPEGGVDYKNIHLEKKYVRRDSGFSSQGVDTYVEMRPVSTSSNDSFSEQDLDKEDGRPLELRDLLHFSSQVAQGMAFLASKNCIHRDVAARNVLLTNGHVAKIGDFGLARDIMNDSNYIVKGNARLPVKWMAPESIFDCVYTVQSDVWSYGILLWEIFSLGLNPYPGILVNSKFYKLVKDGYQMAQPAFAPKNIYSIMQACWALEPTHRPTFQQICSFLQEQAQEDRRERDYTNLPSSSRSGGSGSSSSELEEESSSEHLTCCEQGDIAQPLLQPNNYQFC
T1 sequence (P10635 whole entry): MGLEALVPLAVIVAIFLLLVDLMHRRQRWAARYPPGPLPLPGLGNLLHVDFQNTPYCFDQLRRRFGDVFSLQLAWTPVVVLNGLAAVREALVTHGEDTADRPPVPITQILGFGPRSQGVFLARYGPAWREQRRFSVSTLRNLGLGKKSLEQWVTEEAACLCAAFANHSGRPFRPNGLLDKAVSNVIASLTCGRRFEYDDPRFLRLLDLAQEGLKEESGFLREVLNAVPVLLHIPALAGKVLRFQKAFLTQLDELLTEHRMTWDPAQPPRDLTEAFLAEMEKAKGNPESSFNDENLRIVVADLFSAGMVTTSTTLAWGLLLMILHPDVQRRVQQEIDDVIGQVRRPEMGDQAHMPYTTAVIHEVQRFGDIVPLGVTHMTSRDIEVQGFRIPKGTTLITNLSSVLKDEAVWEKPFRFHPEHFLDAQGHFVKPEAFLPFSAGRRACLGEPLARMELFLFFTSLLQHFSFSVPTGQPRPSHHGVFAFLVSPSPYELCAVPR
Kdr, sequence (P35968 20-1356, species assumed): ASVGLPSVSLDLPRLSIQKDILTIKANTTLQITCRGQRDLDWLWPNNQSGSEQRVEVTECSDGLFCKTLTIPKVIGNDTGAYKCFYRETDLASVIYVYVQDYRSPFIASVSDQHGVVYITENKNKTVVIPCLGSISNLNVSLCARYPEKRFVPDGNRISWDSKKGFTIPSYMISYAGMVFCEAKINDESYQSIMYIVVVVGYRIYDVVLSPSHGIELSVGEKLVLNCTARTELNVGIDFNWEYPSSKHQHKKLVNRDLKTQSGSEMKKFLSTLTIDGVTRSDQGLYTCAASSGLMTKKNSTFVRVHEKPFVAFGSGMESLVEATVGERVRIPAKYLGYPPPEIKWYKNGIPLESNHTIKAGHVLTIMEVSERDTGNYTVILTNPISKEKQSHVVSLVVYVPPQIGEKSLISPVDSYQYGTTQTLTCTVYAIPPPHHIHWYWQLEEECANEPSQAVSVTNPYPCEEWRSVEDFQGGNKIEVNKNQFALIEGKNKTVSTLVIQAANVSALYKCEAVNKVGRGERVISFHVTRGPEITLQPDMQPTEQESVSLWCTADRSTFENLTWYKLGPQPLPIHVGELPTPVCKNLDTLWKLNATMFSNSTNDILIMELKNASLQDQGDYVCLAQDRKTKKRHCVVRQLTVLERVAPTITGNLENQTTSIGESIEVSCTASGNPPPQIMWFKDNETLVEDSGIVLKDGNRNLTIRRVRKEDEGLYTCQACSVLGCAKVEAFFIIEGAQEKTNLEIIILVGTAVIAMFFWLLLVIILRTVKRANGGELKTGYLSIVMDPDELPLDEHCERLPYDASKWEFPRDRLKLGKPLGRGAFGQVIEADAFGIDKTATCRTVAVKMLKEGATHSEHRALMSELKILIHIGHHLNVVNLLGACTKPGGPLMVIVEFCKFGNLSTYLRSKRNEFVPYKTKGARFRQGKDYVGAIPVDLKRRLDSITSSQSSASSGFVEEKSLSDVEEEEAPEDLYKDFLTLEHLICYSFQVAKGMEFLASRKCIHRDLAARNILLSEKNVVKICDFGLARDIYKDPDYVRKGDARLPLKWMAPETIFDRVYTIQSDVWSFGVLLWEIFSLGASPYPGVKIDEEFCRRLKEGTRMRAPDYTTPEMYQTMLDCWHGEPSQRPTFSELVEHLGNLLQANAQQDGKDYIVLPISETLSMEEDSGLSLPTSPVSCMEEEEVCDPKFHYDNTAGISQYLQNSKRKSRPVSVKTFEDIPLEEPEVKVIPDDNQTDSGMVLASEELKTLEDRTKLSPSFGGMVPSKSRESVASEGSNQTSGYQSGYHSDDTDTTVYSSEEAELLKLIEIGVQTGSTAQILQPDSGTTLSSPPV
T3 sequence (P15056 whole entry V600E): as the sequence (P15056 whole entry) above, with V600E counted along it
Src, sequence (P12931 whole entry, species assumed): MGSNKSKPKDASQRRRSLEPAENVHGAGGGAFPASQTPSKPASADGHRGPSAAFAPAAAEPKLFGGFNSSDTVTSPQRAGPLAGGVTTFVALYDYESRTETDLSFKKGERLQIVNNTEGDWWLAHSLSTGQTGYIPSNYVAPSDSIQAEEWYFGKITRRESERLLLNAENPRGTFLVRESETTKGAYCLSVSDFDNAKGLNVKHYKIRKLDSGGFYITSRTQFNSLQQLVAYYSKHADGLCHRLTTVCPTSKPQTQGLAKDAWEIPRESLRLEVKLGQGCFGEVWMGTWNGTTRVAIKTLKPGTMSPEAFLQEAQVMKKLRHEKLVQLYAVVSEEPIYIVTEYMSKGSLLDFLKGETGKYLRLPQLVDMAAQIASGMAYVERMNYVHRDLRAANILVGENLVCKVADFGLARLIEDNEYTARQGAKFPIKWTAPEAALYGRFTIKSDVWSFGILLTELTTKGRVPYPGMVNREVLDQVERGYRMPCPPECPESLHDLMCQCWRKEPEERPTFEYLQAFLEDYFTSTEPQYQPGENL

Take `CCCS(=O)(=O)Nc1ccc(F)c(C(=O)c2c[nH]c3ncc(-c4cnc(OC)nc4)cc23)c1F` [Compound P-0001, propane-1-sulfonic acid {2,4-difluoro-3-[5-(2-methoxy-pyrimidin-5-yl)-1H-pyrrolo[2,3-b]pyridine-3-carbonyl]-phenyl}-amide]: the “turbidity threshold (L, M, H) 4.5” value in data set [1] is on record as “M (moderate solubility if the threshold concentration is 31.3 μM to 250 μM)”. Further, the “turbidity threshold (L, M, H) 6.8” value in data set [1] is on record as “M (moderate solubility if the threshold concentration is 31.3 μM to 250 μM)”. Also, the “turbidity threshold (L, M, H) 7.4” value in data set [1] is recorded as “M (moderate solubility if the threshold concentration is 31.3 μM to 250 μM)”. Besides, the “Selectivity of inhibitory activity, Raf kinases versus other kinases” value (“Selectivity of inhibitory activity” for short) with Raf kinases is “selective activity to the Raf kinases”. The “Kinase having IC50 of >1 μM” value at Fms is listed as “Fms”; on Kdr, “Kdr”; on Src, “Src”. The IC50 at CYP2D6 is more than 10 µM; on B-Raf, less than 0.1 µM; on B-Raf V600E it was less than 0.01 µM.

`CCCS(=O)(=O)Nc1ccc(F)c(C(=O)c2c[nH]c3ncc(C#N)cc23)c1F` [Compound P-0002, propane-1-sulfonic acid [3-(5-cyano-1H-pyrrolo[2,3-b]pyridine-3-carbonyl)-2,4-difluoro-phenyl]-amide]: in data set [1], the “turbidity threshold (L, M, H) 4.5” value is recorded as “M (moderate solubility if the threshold concentration is 31.3 μM to 250 μM)”. Also, the “turbidity threshold (L, M, H) 6.8” value in data set [1] is reported as “M (moderate solubility if the threshold concentration is 31.3 μM to 250 μM)”. The “turbidity threshold (L, M, H) 7.4” value in data set [1] is listed as “M (moderate solubility if the threshold concentration is 31.3 μM to 250 μM)”. Further, the “Selectivity of inhibitory activity” value in the data set on Raf kinases is “selective activity to the Raf kinases”. For the same molecule, the “Kinase having IC50 of >1 μM” value on Fms is reported as “Fms”; on Kdr it was “Kdr”; at Src it was “Src”. Moreover, the IC50 was more than 10 µM at CYP2D6, less than 0.1 µM on B-Raf and less than 0.01 µM against B-Raf V600E.

In the case of `CCCS(=O)(=O)Nc1cccc(C(=O)c2c[nH]c3ncc(C#N)cc23)c1F` [Compound P-0003, propane-1-sulfonic acid [3-(5-cyano-1H-pyrrolo[2,3-b]pyridine-3-carbonyl)-2-fluoro-phenyl]-amide], the “turbidity threshold (L, M, H) 4.5” value in data set [1] is “M (moderate solubility if the threshold concentration is 31.3 μM to 250 μM)”. For the same molecule, the “turbidity threshold (L, M, H) 6.8” value in data set [1] is reported as “M (moderate solubility if the threshold concentration is 31.3 μM to 250 μM)”. The “turbidity threshold (L, M, H) 7.4” value in data set [1] was “M (moderate solubility if the threshold concentration is 31.3 μM to 250 μM)”. In the data set with Raf kinases, the “Selectivity of inhibitory activity” value is “selective activity to the Raf kinases”. In addition, the “Kinase having IC50 of >1 μM” value at Fms is on record as “Fms”; at Kdr it was “Kdr”; on Src it was “Src”. The results for the IC50 at CYP2D6, against B-Raf and on B-Raf V600E were more than 10 µM, less than 1 µM and approximately 0.1 µM, respectively.

In the case of `N#Cc1cnc2[nH]cc(C(=O)c3c(F)ccc(NS(=O)(=O)c4cc(F)ccc4F)c3F)c2c1` [Compound P-0004, N-[3-(5-cyano-1H-pyrrolo[2,3-b]pyridine-3-carbonyl)-2,4-difluoro-phenyl]-2,5-difluoro-benzenesulfonamide], in data set [1], the “turbidity threshold (L, M, H) 4.5” value is given as “M (moderate solubility if the threshold concentration is 31.3 μM to 250 μM)”. The “turbidity threshold (L, M, H) 6.8” value in data set [1] is listed as “M (moderate solubility if the threshold concentration is 31.3 μM to 250 μM)”. Besides, the “turbidity threshold (L, M, H) 7.4” value in data set [1] is recorded as “M (moderate solubility if the threshold concentration is 31.3 μM to 250 μM)”. In the data set with Raf kinases, the “Selectivity of inhibitory activity” value is on record as “selective activity to the Raf kinases”. For the same molecule, on Fms, the “Kinase having IC50 of >1 μM” value is “Fms”. In addition, the results for the “Kinase having IC50 of <1 μM” value at Kdr (listing of the kinase means IC50 <1 μM) and on Src were “Kdr” and “Src”, respectively. In addition, the IC50 on CYP2D6 was more than 10 µM; against B-Raf, less than 0.1 µM; against B-Raf V600E, less than 0.01 µM.

In the case of `N#Cc1cnc2[nH]cc(C(=O)c3c(F)ccc(NS(=O)(=O)c4cccc(F)c4)c3F)c2c1` [Compound P-0005, N-[3-(5-cyano-1H-pyrrolo[2,3-b]pyridine-3-carbonyl)-2,4-difluoro-phenyl]-3-fluoro-benzenesulfonamide], in data set [1], the “turbidity threshold (L, M, H) 4.5” value is given as “M (moderate solubility if the threshold concentration is 31.3 μM to 250 μM)”. Further, the “turbidity threshold (L, M, H) 6.8” value in data set [1] is given as “M (moderate solubility if the threshold concentration is 31.3 μM to 250 μM)”. For the same molecule, the “turbidity threshold (L, M, H) 7.4” value in data set [1] is on record as “M (moderate solubility if the threshold concentration is 31.3 μM to 250 μM)”. Also, the “Selectivity of inhibitory activity” value in the data set with Raf kinases is “selective activity to the Raf kinases”. The “Kinase having IC50 of >1 μM” value is on record as “Fms” on Fms and “Kdr” on Kdr. Besides, the IC50 at CYP2D6 is more than 10 µM; on B-Raf it was less than 0.01 µM; on B-Raf V600E, less than 0.01 µM. The “Kinase having IC50 of <1 μM” value at Src is recorded as “Src”.

Take `N#Cc1cnc2[nH]cc(C(=O)c3c(F)ccc(NS(=O)(=O)N4CCCC4)c3F)c2c1` [Compound P-0006, pyrrolidine-1-sulfonic acid [3-(5-cyano-1H-pyrrolo[2,3-b]pyridine-3-carbonyl)-2,4-difluoro-phenyl]-amide]: the “turbidity threshold (L, M, H) 4.5” value in data set [1] is recorded as “M (moderate solubility if the threshold concentration is 31.3 μM to 250 μM)”. Also, the “turbidity threshold (L, M, H) 6.8” value in data set [1] is given as “M (moderate solubility if the threshold concentration is 31.3 μM to 250 μM)”. Further, the “turbidity threshold (L, M, H) 7.4” value in data set [1] is on record as “M (moderate solubility if the threshold concentration is 31.3 μM to 250 μM)”. In the data set with Raf kinases, the “Selectivity of inhibitory activity” value was “selective activity to the Raf kinases”. The figures for the “Kinase having IC50 of >1 μM” value on Fms, on Kdr and on Src were “Fms”, “Kdr” and “Src”, respectively. For the same molecule, the IC50 at CYP2D6 was more than 10 µM; against B-Raf, less than 0.1 µM; against B-Raf V600E, less than 0.01 µM.

The record behind these values is patent US8901301B2, “Pyrrolo[2,3-]pyridine kinase inhibitors” (Plexxikon Inc., priority 2009, dated 2014).
